Data from ChEMBL document CHEMBL4507295 (2021).

Legend:
[1] = species on record: Homo sapiens; test: Inhibition of Nicotinic Acetylcholine at compound concentration of 10.0 uM in the Eurofins-Panlabs radioligand binding assay (Eurofins_assay_258590); format: protein-complex assay; conditions: Compound concentration 10.0 uM
[2] = molecular target: Sodium-dependent dopamine transporter (Homo sapiens) (UniProt Q01959); conditions: Compound concentration 10.0 uM
[3] = molecular target: Type-1 angiotensin II receptor (Homo sapiens) (UniProt P30556); test: Angiotensin AT1 Eurofins-Panlabs radioligand binding assay; conditions: Compound concentration 10.0 uM
[4] = molecular target: Thyrotropin-releasing hormone receptor (Homo sapiens) (UniProt P34981); test: Thyrotropin Releasing Hormone (TRH) Eurofins-Panlabs radioligand binding assay; set-up: ligand concentration 3 nM; conditions: Rattus norvegicus; Compound concentration 10.0 uM
Thyrotropin-releasing hormone receptor (Homo sapiens), sequence (P34981 whole entry): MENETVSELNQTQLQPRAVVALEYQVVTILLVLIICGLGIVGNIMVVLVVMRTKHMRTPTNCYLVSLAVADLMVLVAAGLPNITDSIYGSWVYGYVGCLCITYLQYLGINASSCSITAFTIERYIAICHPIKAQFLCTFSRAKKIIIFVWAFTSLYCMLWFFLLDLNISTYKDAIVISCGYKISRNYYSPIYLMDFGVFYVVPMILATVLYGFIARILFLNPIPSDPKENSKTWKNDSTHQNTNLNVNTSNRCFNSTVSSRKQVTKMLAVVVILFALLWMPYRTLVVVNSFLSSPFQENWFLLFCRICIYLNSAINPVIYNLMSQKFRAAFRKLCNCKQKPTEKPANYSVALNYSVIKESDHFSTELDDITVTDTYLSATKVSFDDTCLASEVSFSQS

[5] = species on record: Rattus norvegicus; test: Serotonin (5-Hydroxytryptamine) 5-HT2, Non-Selective Eurofins-Panlabs radioligand binding assay; format: protein assay; conditions: Compound concentration 10.0 uM
[6] = molecular target: Melanocortin receptor 4 (Homo sapiens) (UniProt P32245); test: Inhibition of Melanocortin MC4 at 10 µM in the Eurofins-Panlabs radioligand binding assay (Eurofins_assay_251350); set-up: ligand concentration 0.02 nM; conditions: Compound concentration 10.0 uM
Melanocortin receptor 4 (Homo sapiens), sequence (P32245 whole entry): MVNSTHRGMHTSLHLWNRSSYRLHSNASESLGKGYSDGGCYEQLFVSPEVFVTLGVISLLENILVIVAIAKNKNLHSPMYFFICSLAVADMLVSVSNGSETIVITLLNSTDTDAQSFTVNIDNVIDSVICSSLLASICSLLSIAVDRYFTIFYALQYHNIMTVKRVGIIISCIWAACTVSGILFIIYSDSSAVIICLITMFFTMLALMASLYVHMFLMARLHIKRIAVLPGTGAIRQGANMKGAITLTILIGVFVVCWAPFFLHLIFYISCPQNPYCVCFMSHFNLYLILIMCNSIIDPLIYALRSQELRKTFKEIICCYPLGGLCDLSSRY

[7] = molecular target: 5-hydroxytryptamine receptor 1B (Homo sapiens) (UniProt P28222); test: Inhibition of Serotonin (5-Hydroxytryptamine) 5-HT1B at 10 µM in the Eurofins-Panlabs radioligand binding assay (Eurofins_assay_271200); conditions: Compound concentration 10.0 uM
5-hydroxytryptamine receptor 1B (Homo sapiens), sequence (P28222 whole entry): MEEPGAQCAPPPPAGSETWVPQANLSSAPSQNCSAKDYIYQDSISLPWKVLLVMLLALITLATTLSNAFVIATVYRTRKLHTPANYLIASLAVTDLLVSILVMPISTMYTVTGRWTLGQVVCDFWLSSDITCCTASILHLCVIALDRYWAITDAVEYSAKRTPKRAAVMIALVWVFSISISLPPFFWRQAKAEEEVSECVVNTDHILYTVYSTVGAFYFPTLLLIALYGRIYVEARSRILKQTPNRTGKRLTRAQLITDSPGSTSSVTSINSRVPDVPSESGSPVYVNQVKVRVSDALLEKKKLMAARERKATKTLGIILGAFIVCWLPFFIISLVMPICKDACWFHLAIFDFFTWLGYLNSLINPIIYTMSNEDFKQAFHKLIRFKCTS

[8] = molecular target: Epidermal growth factor receptor (Homo sapiens) (UniProt P00533); test: Protein Tyrosine Kinase, EGF Receptor Eurofins-Panlabs enzyme assay; set-up: substrate with concentration 10 µg/mL Poly(Glu:Tyr), incubation time 60 min, incubation temperature 25 °C; conditions: Compound concentration 10.0 uM
[9] = molecular target: Oxytocin receptor (Homo sapiens) (UniProt P30559); test: Oxytocin Eurofins-Panlabs radioligand binding assay; conditions: Compound concentration 10.0 uM
Oxytocin receptor (Homo sapiens), sequence (P30559 whole entry): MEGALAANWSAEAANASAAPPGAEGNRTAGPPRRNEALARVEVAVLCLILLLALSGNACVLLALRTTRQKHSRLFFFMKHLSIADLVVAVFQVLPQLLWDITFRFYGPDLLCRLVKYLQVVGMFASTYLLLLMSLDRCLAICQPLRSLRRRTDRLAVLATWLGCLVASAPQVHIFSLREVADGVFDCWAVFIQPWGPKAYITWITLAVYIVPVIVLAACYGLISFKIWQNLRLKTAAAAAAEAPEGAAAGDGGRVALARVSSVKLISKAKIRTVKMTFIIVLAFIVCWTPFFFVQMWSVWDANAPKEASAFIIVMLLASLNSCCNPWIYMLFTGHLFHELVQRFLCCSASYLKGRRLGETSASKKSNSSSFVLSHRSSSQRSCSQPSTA

[10] = molecular target: Neutrophil elastase (Homo sapiens) (UniProt P08246); test: Peptidase, ELA2 (Neutrophil Elastase 2) Eurofins-Panlabs enzyme assay; conditions: Compound concentration 10.0 uM
[11] = molecular target: Receptor-type tyrosine-protein phosphatase C (Homo sapiens) (UniProt P08575); test: Inhibition of Protein Tyrosine Phosphatase, PTPRC (CD45) at 10 µM in the Eurofins-Panlabs enzyme assay (Eurofins_assay_190010); conditions: Compound concentration 10.0 uM
[12] = molecular target: Mu-type opioid receptor (Homo sapiens) (UniProt P35372); conditions: Compound concentration 10.0 uM
Mu-type opioid receptor (Homo sapiens), sequence (P35372 whole entry): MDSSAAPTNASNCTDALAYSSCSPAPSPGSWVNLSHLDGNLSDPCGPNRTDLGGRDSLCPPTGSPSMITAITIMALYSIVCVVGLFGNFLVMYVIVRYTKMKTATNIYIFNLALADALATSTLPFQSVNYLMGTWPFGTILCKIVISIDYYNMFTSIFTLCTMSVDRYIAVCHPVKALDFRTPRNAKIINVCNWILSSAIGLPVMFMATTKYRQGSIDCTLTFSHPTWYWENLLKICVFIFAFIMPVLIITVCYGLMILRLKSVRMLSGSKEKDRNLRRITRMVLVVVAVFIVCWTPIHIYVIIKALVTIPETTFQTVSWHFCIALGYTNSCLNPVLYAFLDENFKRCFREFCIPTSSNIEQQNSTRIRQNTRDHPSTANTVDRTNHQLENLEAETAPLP

[13] = molecular target: Vasoactive intestinal polypeptide receptor 1 (Homo sapiens) (UniProt P32241); test: Inhibition of Vasoactive Intestinal Peptide VIP1 at 10 µM in the Eurofins-Panlabs radioligand binding assay (Eurofins_assay_287010); conditions: Compound concentration 10.0 uM
[14] = molecular target: GABA-A receptor; anion channel (Rattus norvegicus) (UniProt O09028+P15431+P18506+P18508+P19969+P20236+P23574+P23576+P28471+P28473+P30191+P62813+P63079+P63138+Q91ZM7+Q9ES14); conditions: Compound concentration 10.0 uM
[15] = molecular target: Beta-2 adrenergic receptor (Homo sapiens) (UniProt P07550); conditions: Compound concentration 10.0 uM
[16] = molecular target: monoamine oxidase MAO-A (Homo sapiens, UniProt P21397); test: Inhibition of Monoamine Oxidase MAO-A at compound concentration of 10.0 uM in the Eurofins-Panlabs enzyme assay (Eurofins_assay_140010); set-up: substrate with concentration 50 uM Kynuramine, incubation time 60 min, incubation temperature 37 C; conditions: recombinant human MAO-A expressed in insect Hi5 cells, probe kynuramine (50 uM), compound concentration 10 uM
monoamine oxidase MAO-A, sequence (P21397 whole entry): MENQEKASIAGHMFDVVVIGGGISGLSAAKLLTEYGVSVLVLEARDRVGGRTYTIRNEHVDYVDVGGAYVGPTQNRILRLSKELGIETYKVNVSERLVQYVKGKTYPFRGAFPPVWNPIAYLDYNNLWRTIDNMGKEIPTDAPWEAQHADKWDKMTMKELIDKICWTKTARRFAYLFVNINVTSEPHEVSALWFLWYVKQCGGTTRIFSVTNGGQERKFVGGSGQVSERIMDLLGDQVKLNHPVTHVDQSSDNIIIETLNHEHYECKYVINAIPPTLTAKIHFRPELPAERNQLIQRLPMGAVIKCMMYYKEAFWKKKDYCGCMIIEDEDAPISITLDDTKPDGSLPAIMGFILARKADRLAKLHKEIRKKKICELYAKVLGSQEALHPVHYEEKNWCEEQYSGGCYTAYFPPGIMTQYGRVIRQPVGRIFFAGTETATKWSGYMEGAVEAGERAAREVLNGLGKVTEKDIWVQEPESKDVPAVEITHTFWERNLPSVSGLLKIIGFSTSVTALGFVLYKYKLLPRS

[17] = molecular target: Neuropeptide Y receptor type 1 (Homo sapiens) (UniProt P25929); test: Inhibition of Neuropeptide Y Y1 at 10 µM in the Eurofins-Panlabs radioligand binding assay (Eurofins_assay_257010); conditions: Compound concentration 10.0 uM
[18] = molecular target: Serine/threonine-protein kinase Nek7 (Homo sapiens) (UniProt Q8TDX7); conditions: Compound concentration 1000.0 nM
Serine/threonine-protein kinase Nek7 (Homo sapiens), sequence (Q8TDX7 whole entry, looked up): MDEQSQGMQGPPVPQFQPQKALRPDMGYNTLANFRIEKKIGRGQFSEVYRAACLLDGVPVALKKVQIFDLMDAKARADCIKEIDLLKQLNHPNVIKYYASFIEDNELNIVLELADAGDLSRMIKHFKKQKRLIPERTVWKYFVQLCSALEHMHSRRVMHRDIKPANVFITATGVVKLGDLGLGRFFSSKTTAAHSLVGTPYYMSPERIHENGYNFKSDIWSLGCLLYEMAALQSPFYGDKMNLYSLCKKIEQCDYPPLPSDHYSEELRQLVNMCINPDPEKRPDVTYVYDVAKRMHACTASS

[19] = molecular target: Sodium-dependent serotonin transporter (Homo sapiens) (UniProt P31645); test: Transporter, Serotonin (5- Hydroxytryptamine) (SERT) Eurofins-Panlabs radioligand binding assay; set-up: ligand concentration 0.15 nM, non-specific ligand with concentration 10 µM Imipramine, incubation time 3 h, incubation temperature 4 °C; conditions: Compound concentration 10.0 uM
Sodium-dependent serotonin transporter (Homo sapiens), sequence (P31645 whole entry, looked up): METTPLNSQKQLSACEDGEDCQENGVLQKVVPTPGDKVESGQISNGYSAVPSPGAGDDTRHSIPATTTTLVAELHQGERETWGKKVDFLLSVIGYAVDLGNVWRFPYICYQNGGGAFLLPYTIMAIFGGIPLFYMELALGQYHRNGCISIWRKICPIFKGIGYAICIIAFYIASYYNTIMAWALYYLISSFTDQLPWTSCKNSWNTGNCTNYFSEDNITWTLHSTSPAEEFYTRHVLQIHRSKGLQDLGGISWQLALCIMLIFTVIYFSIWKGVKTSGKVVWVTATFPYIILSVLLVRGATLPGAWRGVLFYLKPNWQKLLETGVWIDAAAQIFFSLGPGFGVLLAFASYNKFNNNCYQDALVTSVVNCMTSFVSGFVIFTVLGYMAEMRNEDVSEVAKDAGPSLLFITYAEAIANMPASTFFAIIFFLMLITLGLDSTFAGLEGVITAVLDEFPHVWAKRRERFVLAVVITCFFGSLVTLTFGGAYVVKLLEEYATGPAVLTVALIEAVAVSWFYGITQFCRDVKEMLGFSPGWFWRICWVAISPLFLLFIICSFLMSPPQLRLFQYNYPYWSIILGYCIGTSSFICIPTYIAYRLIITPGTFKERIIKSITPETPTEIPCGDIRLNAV

[20] = molecular target: Somatostatin receptor type 2 (Homo sapiens) (UniProt P30874); test: Somatostatin sst2 Eurofins-Panlabs radioligand binding assay; set-up: ligand concentration 0.1 nM; conditions: Compound concentration 10.0 uM
[21] = molecular target: Protein-tyrosine kinase 2-beta (Homo sapiens) (UniProt Q14289); conditions: Compound concentration 1000.0 nM
Protein-tyrosine kinase 2-beta (Homo sapiens), sequence (Q14289 whole entry, looked up): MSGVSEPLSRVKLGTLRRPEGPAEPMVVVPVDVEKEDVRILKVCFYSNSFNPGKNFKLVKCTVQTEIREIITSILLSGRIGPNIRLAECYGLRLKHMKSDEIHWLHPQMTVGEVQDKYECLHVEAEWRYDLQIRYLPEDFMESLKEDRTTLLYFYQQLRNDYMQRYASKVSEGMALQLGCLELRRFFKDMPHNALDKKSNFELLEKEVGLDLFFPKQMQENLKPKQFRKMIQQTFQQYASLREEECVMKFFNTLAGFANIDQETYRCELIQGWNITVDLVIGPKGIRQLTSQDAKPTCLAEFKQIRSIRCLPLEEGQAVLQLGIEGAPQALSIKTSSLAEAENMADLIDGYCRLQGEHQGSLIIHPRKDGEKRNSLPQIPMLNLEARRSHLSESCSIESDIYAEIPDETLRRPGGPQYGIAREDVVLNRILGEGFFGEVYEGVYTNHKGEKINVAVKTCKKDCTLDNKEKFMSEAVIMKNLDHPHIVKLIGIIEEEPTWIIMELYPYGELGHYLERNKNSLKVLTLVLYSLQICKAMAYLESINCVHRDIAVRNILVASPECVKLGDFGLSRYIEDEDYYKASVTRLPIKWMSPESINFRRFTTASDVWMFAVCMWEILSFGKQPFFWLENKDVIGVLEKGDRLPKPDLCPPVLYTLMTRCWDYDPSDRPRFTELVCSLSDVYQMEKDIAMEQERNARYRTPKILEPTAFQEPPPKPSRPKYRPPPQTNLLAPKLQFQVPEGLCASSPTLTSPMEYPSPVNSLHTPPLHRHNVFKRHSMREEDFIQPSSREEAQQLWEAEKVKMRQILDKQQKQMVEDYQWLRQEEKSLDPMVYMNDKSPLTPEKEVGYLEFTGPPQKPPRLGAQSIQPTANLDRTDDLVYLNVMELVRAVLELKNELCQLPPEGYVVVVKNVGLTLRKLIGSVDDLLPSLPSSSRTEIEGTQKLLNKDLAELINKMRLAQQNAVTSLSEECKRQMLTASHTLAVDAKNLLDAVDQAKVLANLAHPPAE

[22] = molecular target: Sodium-dependent noradrenaline transporter (Homo sapiens) (UniProt P23975); conditions: Compound concentration 10.0 uM
Sodium-dependent noradrenaline transporter (Homo sapiens), sequence (P23975 whole entry): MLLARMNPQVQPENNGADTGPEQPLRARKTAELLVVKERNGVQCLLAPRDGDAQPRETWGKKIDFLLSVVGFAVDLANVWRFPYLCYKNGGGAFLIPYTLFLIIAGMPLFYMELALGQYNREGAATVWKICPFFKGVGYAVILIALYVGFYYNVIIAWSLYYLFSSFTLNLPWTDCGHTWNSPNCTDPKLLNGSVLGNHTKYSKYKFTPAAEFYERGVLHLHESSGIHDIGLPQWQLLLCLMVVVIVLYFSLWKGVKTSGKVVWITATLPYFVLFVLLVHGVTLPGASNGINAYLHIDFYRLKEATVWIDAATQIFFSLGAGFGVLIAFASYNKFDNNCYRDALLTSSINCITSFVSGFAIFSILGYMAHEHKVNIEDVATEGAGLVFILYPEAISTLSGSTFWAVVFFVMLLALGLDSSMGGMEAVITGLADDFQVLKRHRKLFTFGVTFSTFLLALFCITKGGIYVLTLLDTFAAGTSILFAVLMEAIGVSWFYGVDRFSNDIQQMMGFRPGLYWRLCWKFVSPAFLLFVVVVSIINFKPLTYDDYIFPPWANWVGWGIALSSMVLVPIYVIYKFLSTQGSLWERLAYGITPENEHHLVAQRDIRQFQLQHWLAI

[23] = molecular target: Sodium-dependent serotonin transporter (Homo sapiens) (UniProt P31645); conditions: Compound concentration 10.0 uM
[24] = molecular target: Endothelin receptor type B (Homo sapiens) (UniProt P24530); conditions: Compound concentration 10.0 uM
[25] = molecular target: Insulin receptor (Homo sapiens) (UniProt P06213); test: Protein Tyrosine Kinase, Insulin Receptor Eurofins-Panlabs enzyme assay; set-up: substrate with concentration 10 µg/mL […], incubation time 60 min, incubation temperature 25 °C; conditions: Compound concentration 10.0 uM
[26] = species on record: Homo sapiens; test: Protein Serine/Threonine Kinase, MAPK14 (p38α) Eurofins-Panlabs enzyme assay; set-up: substrate with concentration 10 µg/mL Myelin Basic Protein (MBP), incubation time 60 min, incubation temperature 25 °C; conditions: Compound concentration 10.0 uM
[27] = molecular target: T1, Muscarinic acetylcholine receptor M1 (Homo sapiens) (UniProt P11229); test: Agonism inflection point assay
T1 sequence (whole entry): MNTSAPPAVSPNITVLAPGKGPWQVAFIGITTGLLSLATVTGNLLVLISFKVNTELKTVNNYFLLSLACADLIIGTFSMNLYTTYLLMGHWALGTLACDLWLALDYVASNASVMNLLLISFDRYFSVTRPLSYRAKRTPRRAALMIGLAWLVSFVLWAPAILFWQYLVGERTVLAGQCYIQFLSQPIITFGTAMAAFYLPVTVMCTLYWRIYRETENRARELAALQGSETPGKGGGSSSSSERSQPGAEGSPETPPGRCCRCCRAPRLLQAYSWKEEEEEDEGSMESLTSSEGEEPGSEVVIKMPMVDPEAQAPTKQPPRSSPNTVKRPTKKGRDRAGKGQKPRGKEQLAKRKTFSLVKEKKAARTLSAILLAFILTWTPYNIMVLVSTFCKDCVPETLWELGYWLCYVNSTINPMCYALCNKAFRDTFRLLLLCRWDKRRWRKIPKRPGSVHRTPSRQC

[28] = molecular target: monoamine oxidase MAO-B (Homo sapiens, UniProt P27338); test: Inhibition of Monoamine Oxidase MAO-B at compound concentration of 10.0 uM in the Eurofins-Panlabs enzyme assay (Eurofins_assay_140120); set-up: substrate with concentration 50 uM Kynuramine, incubation time 60 min, incubation temperature 37 C; conditions: recombinant human MAO-B expressed in insect Hi5 cells, probe kynuramine (50 uM), compound concentration 10 uM
[29] = molecular target: cGMP-specific 3',5'-cyclic phosphodiesterase (Homo sapiens) (UniProt O76074); conditions: Compound concentration 100.0 uM
[30] = molecular target: Endothelin-converting enzyme 1 (Homo sapiens) (UniProt P42892); test: Peptidase, Endothelin Converting Enzyme-1 (ECE-1) Eurofins-Panlabs enzyme assay; conditions: Compound concentration 10.0 uM
[31] = molecular target: Vasopressin V1a receptor (Homo sapiens) (UniProt P37288); test: Vasopressin V1A Eurofins-Panlabs radioligand binding assay; set-up: ligand concentration 0.01 nM; conditions: Compound concentration 10.0 uM
[32] = molecular target: GABA-A receptor; alpha-5/beta-3/gamma-2 (Homo sapiens) (UniProt P18507+P28472+P31644); test: GABA-alpha5beta3gamma2 (Muscimol binding) Eurofins-Panlabs radioligand binding assay; format: protein-complex assay; set-up: ligand concentration 8 nM; conditions: Compound concentration 10.0 uM
[33] = molecular target: Muscarinic acetylcholine receptor M3 (Homo sapiens) (UniProt P20309); conditions: Compound concentration 10.0 uM

N#CC1(c2ccccn2)CCN(Cc2cc(C(=O)O)c(=O)n3ccccc23)CC1 [MSD-M1PAM]
inhibition [1]: -2%
inhibition [2]: 0%
inhibition [3]: -8%
inhibition [4]: 13%
inhibition [5]: 0%
inhibition [6]: -1%
inhibition [7]: -2%
inhibition [8]: 5%
inhibition [9]: -5%
inhibition [10]: 9%
inhibition [11]: 13%
inhibition [12]: 18.5%
inhibition [13]: 14%
inhibition [14]: 18%
inhibition [15]: -4%
inhibition at 60 min, 10 µM [16]: 12% (not active)
inhibition [17]: -1%
residual activity [18]: 100%
inhibition [19]: 9%
inhibition [20]: 12%
residual activity [21]: 100%
inhibition [22]: 24.7%
inhibition [23]: 19%
inhibition [24]: -10%
inhibition [25]: 1%
inhibition [26]: -3%
Agonism inflection point [27]: 7.38 µM
inhibition at 60 min, 10 µM [28]: -5% (not active)
inhibition [29]: 21%
inhibition [30]: 45%
inhibition [31]: -5%
inhibition [32]: 11%
inhibition [33]: -6.58%

N#CC1(c2ccccn2)CCN(Cc2cc(C(=O)N3CCCC3)c(=O)n3ccccc23)CC1
inhibition [12]: 35%
residual activity [18]: 82%
residual activity [21]: 86%
inhibition [22]: 40.5%
